Test results: US8841343B2, “Composition for repelling mosquitoes” (Bio & Hnt, Inc., priority 2006, dated 2014)
Several values for one entry are separate records, joined by “and”; a condition that tells them apart may be missing. Identical values can stand only once.

Test system: Aedes aegypti
Experiment: Examination of repellent activity using skin test (treated human forearm in cage of about 100 mated female mosquitoes)
Assay type: in vivo
Details: for Effective repellency duration (hour) (mean ± standard deviation): maximum measurement time 12 hours
Text: Citronellic acid and geranic acid, which are used in the present invention, are commercially available or can directly be synthesized. In this embodiment, products of Aldrich Co. (product names are respectively Citronellic acid and Geranic acid) were purchased and used as citronellic acid and geranic acid. Purities of the above two compounds were examined using a gas chromatograph (GC) and a gas chromatograph-mass spectrometry (GC-MS). The compounds having purity of 99.5% or greater were only used. Respective ingredients of the above compounds were added to isopropyl alcohol of 91% to make test samples consisting of a solution in the concentration of 0.5 to 50%. The samples were used for mosquito repellent efficacy experiments.
The test samples manufactured as above underwent repellent effective experiments with respect to Aedes which is a main mosquito group attacking human.
In this embodiment, Aedes aegypti was used as test mosquitoes. The Aedes aegypti was supplied from Korea Research Institute of Bioscience and Biotechnology and reared indoor from generation to generation.
The larvae of the Aedes aegypti were reared in a plastic container of 22×14×7 cm containing distilled water with small amount of one-to-one mixture of chicken feed and yeast. Fresh mosquito pupae were transferred into a paper cup containing water and then placed in a transparent rearing cage to emerge as adults. Here, the rearing cage was constructed with metal net. Males and females of the freshly emerged mosquitoes were transferred to a rearing cage at one-to-one ratio, and left for two or three days for mating. The female mosquitoes were then used for repellency tests. Eight percent (8%) sugar water was supplied for the adult mosquitoes. The following rearing conditions were maintained: light condition of 16 h:8 h (day:night), temperature of 27±2° C., and relative humidity of 80±10%.
In order to examine effectiveness of the mosquito repellent of the prepared sample solutions, one (1) ml of a sample solution was uniformly applied, using a metal rod, on a forearm of a volunteer human test subject between wrist and elbow. Thereafter, the arm treated with the test solution was inserted in a bioassay cage, constructed with Plexiglass of 50×50×50 cm containing approximately 100 mated female mosquitoes. The number of mosquitoes trying to bite was recorded for three minutes in every thirty minutes for up to 4 hours or in every hour for up to 12 hours. The time required to get the arm bitten by two cumulative mosquitoes was regarded as effective repellency duration. A net window of 40×40 cm was present at each side and top of the Plexiglass bioassay cage to allow air ventilation. A 15×15 cm hole was prepared at the front side of the Plexiglass bioassay cage and a long net sleeve was attached to the hole so that the test arm could be put into the cage for repellency test.
At the beginning of each repellency test, an arm treated with no solvent was placed in the bioassay cage containing mosquitoes, in order to examine blood feeding activity of the mated female test mosquitoes. The repellency tests with the test solutions were carried out only when the arm was bitten by at least two mosquitoes for initial three minutes.
Repellent activity against Aedes was examined in accordance with the aforementioned method using the samples which respectively contain citronellic acid and geranic acid. Also, mosquito repellent activity was measured with solutions which contain DEET and Picadirin, wherein the DEET and Picadirin are commercially available mosquito repellents which are currently recommended by the Center for Disease Control of the United States.
In Table 4 to Table 6, the repellent efficiency was calculated using the following Equation 1.

[1] = 10% (0.25 mg/cm^3), 120 minutes
[2] = 10% (0.25 mg/cm^3), 150 minutes
[3] = 10% (0.25 mg/cm^3), 180 minutes
[4] = 10% (0.25 mg/cm^3), 210 minutes
[5] = 10% (0.25 mg/cm^3), 240 minutes
[6] = concentration 2% (0.05 mg/cm^3), time until arm bitten by two cumulative mosquitoes
[7] = concentration 10% (0.25 mg/cm^3), time until two cumulative bites, maximum measurement time 240 minutes

## CC(C)=CCCC(C)CC(=O)O (racemic) [Citronellic acid, citronellic acid]
2% (0.05 mg/cm^3), 30 minutes
  Repellent efficiency (%) per time (minutes): 100%
2% (0.05 mg/cm^3), 60 minutes
  Repellent efficiency (%) per time (minutes): 84.7%
2% (0.05 mg/cm^3), 90 minutes
  Repellent efficiency (%) per time (minutes): 71.3%
2% (0.05 mg/cm^3), 120 minutes
  Repellent efficiency (%) per time (minutes): 56.4%
2% (0.05 mg/cm^3), 150 minutes
  Repellent efficiency (%) per time (minutes): 37.8%
2% (0.05 mg/cm^3), 180 minutes
  Repellent efficiency (%) per time (minutes): 15.2%
2% (0.05 mg/cm^3), 210 minutes
  Repellent efficiency (%) per time (minutes): 7.4%
2% (0.05 mg/cm^3), 240 minutes
  Repellent efficiency (%) per time (minutes): 0%
10% (0.25 mg/cm^3), 30 minutes
  Repellent efficiency (%) per time (minutes): 100%
10% (0.25 mg/cm^3), 60 minutes
  Repellent efficiency (%) per time (minutes): 100%
10% (0.25 mg/cm^3), 90 minutes
  Repellent efficiency (%) per time (minutes): 100%
[1]
  Repellent efficiency (%) per time (minutes): 100%
[2]
  Repellent efficiency (%) per time (minutes): 100%
[3]
  Repellent efficiency (%) per time (minutes): 85.7%
[4]
  Repellent efficiency (%) per time (minutes): 71.4%
[5]
  Repellent efficiency (%) per time (minutes): 57.1%
15% (0.375 mg/cm^3), 1 hour
  Repellent efficiency (%) per time (hours): 100%
15% (0.375 mg/cm^3), 2 hours
  Repellent efficiency (%) per time (hours): 75%
15% (0.375 mg/cm^3), 3 hours
  Repellent efficiency (%) per time (hours): 75%
15% (0.375 mg/cm^3), 4 hours
  Repellent efficiency (%) per time (hours): 75%
15% (0.375 mg/cm^3), 5 hours
  Repellent efficiency (%) per time (hours): 50%
15% (0.375 mg/cm^3), 6 hours
  Repellent efficiency (%) per time (hours): 50%
15% (0.375 mg/cm^3), 7 hours
  Repellent efficiency (%) per time (hours): 37.5%
15% (0.375 mg/cm^3), 8 hours
  Repellent efficiency (%) per time (hours): 37.5%
15% (0.375 mg/cm^3), 9 hours
  Repellent efficiency (%) per time (hours): 25%
30% (0.75 mg/cm^3), 1 hour
  Repellent efficiency (%) per time (hours): 100%
30% (0.75 mg/cm^3), 2 hours
  Repellent efficiency (%) per time (hours): 87.5%
30% (0.75 mg/cm^3), 3 hours
  Repellent efficiency (%) per time (hours): 75%
30% (0.75 mg/cm^3), 4 hours
  Repellent efficiency (%) per time (hours): 75%
30% (0.75 mg/cm^3), 5 hours
  Repellent efficiency (%) per time (hours): 75%
30% (0.75 mg/cm^3), 6 hours
  Repellent efficiency (%) per time (hours): 62.5%
30% (0.75 mg/cm^3), 7 hours
  Repellent efficiency (%) per time (hours): 62.5%
30% (0.75 mg/cm^3), 8 hours
  Repellent efficiency (%) per time (hours): 62.5%
30% (0.75 mg/cm^3), 9 hours
  Repellent efficiency (%) per time (hours): 62.5%
30% (0.75 mg/cm^3), 10 hours
  Repellent efficiency (%) per time (hours): 50%
30% (0.75 mg/cm^3), 11 hours
  Repellent efficiency (%) per time (hours): 50%
30% (0.75 mg/cm^3), 12 hours
  Repellent efficiency (%) per time (hours): 50%
50% (1.25 mg/cm^3), 1 hour
  Repellent efficiency (%) per time (hours): 100%
50% (1.25 mg/cm^3), 2 hours
  Repellent efficiency (%) per time (hours): 100%
50% (1.25 mg/cm^3), 3 hours
  Repellent efficiency (%) per time (hours): 100%
50% (1.25 mg/cm^3), 4 hours
  Repellent efficiency (%) per time (hours): 100%
50% (1.25 mg/cm^3), 5 hours
  Repellent efficiency (%) per time (hours): 93.3%
50% (1.25 mg/cm^3), 6 hours
  Repellent efficiency (%) per time (hours): 86.7%
50% (1.25 mg/cm^3), 7 hours
  Repellent efficiency (%) per time (hours): 86.7%
50% (1.25 mg/cm^3), 8 hours
  Repellent efficiency (%) per time (hours): 86.7%
50% (1.25 mg/cm^3), 9 hours
  Repellent efficiency (%) per time (hours): 80%
50% (1.25 mg/cm^3), 10 hours
  Repellent efficiency (%) per time (hours): 73.3%
50% (1.25 mg/cm^3), 11 hours
  Repellent efficiency (%) per time (hours): 73.3%
50% (1.25 mg/cm^3), 12 hours
  Repellent efficiency (%) per time (hours): 73.3%
At the level of 0.0125 mg/cm^3
  repellency (in words): did not represent any repellency
At the level of 0.05 mg/cm^3
  time for which repellent efficiency of 100% was shown: 30 min
At the level of 0.25 mg/cm^3
  time for which repellent efficiency of 100% was shown: 150 min
Concentration 0.5% (0.0125 mg/cm^3), time until arm bitten by two cumulative mosquitoes
  Effective repellency duration (minute) (mean ± standard deviation): 0 ± 0 min
[6]
  Effective repellency duration (minute) (mean ± standard deviation): 60 ± 0 min
[7]
  Effective repellency duration (minute) (mean ± standard deviation): 240 ± 0 min
Concentration 10% (0.25 mg/cm^3), time until two cumulative bites, maximum measurement time 240 minutes, listed as citronellic acid
  Effective repellency duration (minute) (mean ± standard deviation): 240 min
Concentration 15% (0.375 mg/cm^3)
  Effective repellency duration (hour) (mean ± standard deviation): 5.7 ± 2.03 h
Concentration 30% (0.75 mg/cm^3)
  Effective repellency duration (hour) (mean ± standard deviation): 9.3 ± 1.76 h
Concentration 30% (0.75 mg/cm^3), listed as citronellic acid
  Effective repellency duration (hour) (mean ± standard deviation): 9.3 h
Concentration 50% (1.25 mg/cm^3)
  Effective repellency duration (hour) (mean ± standard deviation): 9.3 ± 1.76 h
Concentration 50% (1.25 mg/cm^3), listed as citronellic acid
  Effective repellency duration (hour) (mean ± standard deviation): 9.3 h
For 8 hours at the level of 1.25 mg/cm^3
  repellent efficiency: ~90%

## CCN(CC)C(=O)c1cccc(C)c1 [DEET, N,N-diethyl-m-toluamide, reference compound]
2% (0.05 mg/cm^3), 30 minutes
  Repellent efficiency (%) per time (minutes): 100%
2% (0.05 mg/cm^3), 60 minutes
  Repellent efficiency (%) per time (minutes): 0%
2% (0.05 mg/cm^3), 90 minutes
  Repellent efficiency (%) per time (minutes): 0%
2% (0.05 mg/cm^3), 120 minutes
  Repellent efficiency (%) per time (minutes): 0%
2% (0.05 mg/cm^3), 150 minutes
  Repellent efficiency (%) per time (minutes): 0%
2% (0.05 mg/cm^3), 180 minutes
  Repellent efficiency (%) per time (minutes): 0%
2% (0.05 mg/cm^3), 210 minutes
  Repellent efficiency (%) per time (minutes): 0%
2% (0.05 mg/cm^3), 240 minutes
  Repellent efficiency (%) per time (minutes): 0%
10% (0.25 mg/cm^3), 30 minutes
  Repellent efficiency (%) per time (minutes): 100%
10% (0.25 mg/cm^3), 60 minutes
  Repellent efficiency (%) per time (minutes): 100%
10% (0.25 mg/cm^3), 90 minutes
  Repellent efficiency (%) per time (minutes): 100%
[1]
  Repellent efficiency (%) per time (minutes): 100%
[2]
  Repellent efficiency (%) per time (minutes): 87.5%
[3]
  Repellent efficiency (%) per time (minutes): 81.3%
[4]
  Repellent efficiency (%) per time (minutes): 78.1%
[5]
  Repellent efficiency (%) per time (minutes): 71.9%
At the level of 0.25 mg/cm^3
  time for which repellent efficiency of 100% was shown: 120 min
[6]
  Effective repellency duration (minute) (mean ± standard deviation): 70 min and 70 ± 10.0 min
[7]
  Effective repellency duration (minute) (mean ± standard deviation): 218 min and 218 ± 10.8 min
